SMILES strings stand for the structures. Calls of active or inactive are those of the source. The rule behind the calls is not given here. Where only a bound is given, the exact number is not on record here.

Data set [1] addresses T1, 17-beta-hydroxysteroid dehydrogenase type 1 (Homo sapiens, UniProt P14061).
T1 sequence (P14061 whole entry): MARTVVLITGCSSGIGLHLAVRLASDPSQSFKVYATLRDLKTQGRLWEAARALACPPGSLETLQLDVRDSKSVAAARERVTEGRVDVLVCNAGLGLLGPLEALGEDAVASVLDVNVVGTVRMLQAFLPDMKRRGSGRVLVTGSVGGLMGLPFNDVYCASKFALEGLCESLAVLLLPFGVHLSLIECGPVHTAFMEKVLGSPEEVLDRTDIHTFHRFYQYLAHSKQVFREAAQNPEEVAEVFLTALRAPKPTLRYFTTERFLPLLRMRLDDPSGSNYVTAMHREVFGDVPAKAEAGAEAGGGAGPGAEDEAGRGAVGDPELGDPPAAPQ
The experiment in a line: Inhibition of human placental cytosolic 17beta-HSD1.

The target of data set [2] is T2, 17-beta-hydroxysteroid dehydrogenase type 2 (Homo sapiens, UniProt P37059).
T2 sequence (P37059 whole entry): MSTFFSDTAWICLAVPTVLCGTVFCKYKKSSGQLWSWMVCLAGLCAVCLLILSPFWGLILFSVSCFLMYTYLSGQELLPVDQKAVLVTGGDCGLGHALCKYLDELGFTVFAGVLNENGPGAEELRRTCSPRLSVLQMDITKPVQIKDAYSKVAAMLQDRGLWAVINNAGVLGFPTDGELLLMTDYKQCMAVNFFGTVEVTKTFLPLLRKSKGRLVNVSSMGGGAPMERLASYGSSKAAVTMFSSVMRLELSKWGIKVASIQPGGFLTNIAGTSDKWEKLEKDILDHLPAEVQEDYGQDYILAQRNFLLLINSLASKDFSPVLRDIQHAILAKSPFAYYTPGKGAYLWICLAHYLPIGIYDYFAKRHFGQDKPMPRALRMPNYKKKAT
The experiment in a line: Inhibition of human placental microsomal 17beta-HSD2.

Data set [3] concerns the target T3, Estrogen receptor (Homo sapiens) (UniProt P03372).
T3 sequence (whole entry): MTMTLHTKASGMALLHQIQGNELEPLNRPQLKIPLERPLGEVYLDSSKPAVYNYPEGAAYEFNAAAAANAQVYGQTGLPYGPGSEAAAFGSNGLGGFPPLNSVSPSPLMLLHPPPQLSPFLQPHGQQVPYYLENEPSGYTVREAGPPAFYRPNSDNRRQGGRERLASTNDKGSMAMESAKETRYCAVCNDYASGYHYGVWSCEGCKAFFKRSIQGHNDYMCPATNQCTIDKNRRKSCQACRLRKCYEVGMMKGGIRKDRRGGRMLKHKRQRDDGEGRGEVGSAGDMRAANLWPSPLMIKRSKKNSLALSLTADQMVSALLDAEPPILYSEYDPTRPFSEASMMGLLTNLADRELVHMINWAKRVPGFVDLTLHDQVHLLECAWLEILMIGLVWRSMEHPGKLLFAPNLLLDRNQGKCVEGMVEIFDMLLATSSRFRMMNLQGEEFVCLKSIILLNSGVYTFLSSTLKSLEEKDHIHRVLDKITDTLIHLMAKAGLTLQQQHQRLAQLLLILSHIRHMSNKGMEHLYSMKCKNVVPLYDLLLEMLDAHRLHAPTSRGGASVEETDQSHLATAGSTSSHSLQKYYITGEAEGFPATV
The data set is described as follows: Displacement of [2,4,6,7-3H]17beta-estradiol from human recombinant ERalpha receptor relative to 17-beta-estradiol.

Data set [4] concerns the target Estrogen receptor beta (Homo sapiens) (UniProt Q92731). The experiment in a line: Displacement of [2,4,6,7-3H]17beta-estradiol from human recombinant ERbeta receptor relative to 17-beta-estradiol.
For a further data set, the system named is T47D. The experiment in a line: Estrogenic activity in human ER expressing T47D cells assessed as stimulation of cell proliferation at 100 nM by MTT assay. The format is functional, cell-based.
The next data set concerns the target T4, Cytochrome P450 1A2 (Homo sapiens, UniProt P05177).
T4 sequence (P05177 whole entry): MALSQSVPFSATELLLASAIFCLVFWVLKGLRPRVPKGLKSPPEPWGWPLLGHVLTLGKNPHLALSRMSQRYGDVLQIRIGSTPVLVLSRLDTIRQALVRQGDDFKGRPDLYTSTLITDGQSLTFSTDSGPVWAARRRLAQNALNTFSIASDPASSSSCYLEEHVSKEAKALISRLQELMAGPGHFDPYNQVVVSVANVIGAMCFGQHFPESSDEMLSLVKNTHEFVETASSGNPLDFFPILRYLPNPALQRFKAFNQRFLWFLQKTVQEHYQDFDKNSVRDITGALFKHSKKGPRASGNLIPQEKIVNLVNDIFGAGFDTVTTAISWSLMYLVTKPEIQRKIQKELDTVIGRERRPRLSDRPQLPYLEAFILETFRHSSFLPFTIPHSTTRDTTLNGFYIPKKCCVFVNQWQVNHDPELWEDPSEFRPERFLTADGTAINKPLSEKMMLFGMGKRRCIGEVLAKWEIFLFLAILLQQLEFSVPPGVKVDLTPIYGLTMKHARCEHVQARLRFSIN
The data set is described as follows: Inhibition of human hepatic CYP1A2. It is filed as ADME.

Another data set has as its target T5, Cytochrome P450 2B6 (Homo sapiens, UniProt P20813).
T5 sequence (P20813 whole entry): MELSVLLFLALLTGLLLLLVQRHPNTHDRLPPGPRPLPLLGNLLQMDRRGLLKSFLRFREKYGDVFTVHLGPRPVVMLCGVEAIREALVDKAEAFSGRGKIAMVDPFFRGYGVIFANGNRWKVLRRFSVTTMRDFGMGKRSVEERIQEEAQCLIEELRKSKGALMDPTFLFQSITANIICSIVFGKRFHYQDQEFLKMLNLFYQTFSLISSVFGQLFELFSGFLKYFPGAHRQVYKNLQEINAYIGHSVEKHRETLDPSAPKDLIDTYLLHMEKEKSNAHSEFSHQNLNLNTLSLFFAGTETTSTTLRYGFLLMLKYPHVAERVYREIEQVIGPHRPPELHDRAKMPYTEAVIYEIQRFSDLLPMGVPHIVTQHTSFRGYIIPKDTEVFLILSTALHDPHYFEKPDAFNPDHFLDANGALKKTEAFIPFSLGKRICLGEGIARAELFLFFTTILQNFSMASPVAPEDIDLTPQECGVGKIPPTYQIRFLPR
The data set is described as follows: Inhibition of human hepatic CYP2B6. It is filed as ADME.

The target of another data set is Cytochrome P450 2C19 (Homo sapiens, UniProt P33261). The experiment in a line: Inhibition of human hepatic CYP2C19. It is filed as ADME.
The target in the next data set is Cytochrome P450 2D6 (Homo sapiens, UniProt P10635). The experiment in a line: Inhibition of human hepatic CYP2D6. The format is ADME.
For the next data set, the target named is Cytochrome P450 2C9 (Homo sapiens, UniProt P11712). The experiment in a line: Inhibition of human hepatic CYP2C9. It is filed as ADME.
Another data set has as its target Cytochrome P450 3A4 (Homo sapiens, UniProt P08684). The experiment in a line: Inhibition of human hepatic CYP3A4.
Data set [5] is described as follows: in vitro. The conditions noted are these: human, Caco-2.
Description: Apparent permeability across human Caco-2 cells at 50 uM
Data set [6] is described as follows: in vitro. As to conditions: Sprague-Dawley, rat, liver microsomes.
Data set [7] in a line: in vitro. The conditions noted are these: Sprague-Dawley, rat, liver microsomes. The source holds these as a separate data set.

Chain of Cytochrome P450 2C19 (P33261 whole entry): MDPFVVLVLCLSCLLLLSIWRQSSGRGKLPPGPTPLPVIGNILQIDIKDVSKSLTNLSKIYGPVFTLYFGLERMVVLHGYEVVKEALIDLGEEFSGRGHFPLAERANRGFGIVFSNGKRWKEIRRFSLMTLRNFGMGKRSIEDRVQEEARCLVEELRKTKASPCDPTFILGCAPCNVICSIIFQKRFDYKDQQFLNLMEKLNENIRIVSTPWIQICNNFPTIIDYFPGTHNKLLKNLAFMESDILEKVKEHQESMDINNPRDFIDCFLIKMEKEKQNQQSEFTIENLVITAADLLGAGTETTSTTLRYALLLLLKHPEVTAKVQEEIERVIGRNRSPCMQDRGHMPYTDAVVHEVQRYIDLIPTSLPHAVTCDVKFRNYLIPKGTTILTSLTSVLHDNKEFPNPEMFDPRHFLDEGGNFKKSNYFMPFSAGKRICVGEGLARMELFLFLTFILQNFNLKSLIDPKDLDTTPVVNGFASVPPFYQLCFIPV
Chain of Estrogen receptor beta (Homo sapiens) (Q92731 whole entry): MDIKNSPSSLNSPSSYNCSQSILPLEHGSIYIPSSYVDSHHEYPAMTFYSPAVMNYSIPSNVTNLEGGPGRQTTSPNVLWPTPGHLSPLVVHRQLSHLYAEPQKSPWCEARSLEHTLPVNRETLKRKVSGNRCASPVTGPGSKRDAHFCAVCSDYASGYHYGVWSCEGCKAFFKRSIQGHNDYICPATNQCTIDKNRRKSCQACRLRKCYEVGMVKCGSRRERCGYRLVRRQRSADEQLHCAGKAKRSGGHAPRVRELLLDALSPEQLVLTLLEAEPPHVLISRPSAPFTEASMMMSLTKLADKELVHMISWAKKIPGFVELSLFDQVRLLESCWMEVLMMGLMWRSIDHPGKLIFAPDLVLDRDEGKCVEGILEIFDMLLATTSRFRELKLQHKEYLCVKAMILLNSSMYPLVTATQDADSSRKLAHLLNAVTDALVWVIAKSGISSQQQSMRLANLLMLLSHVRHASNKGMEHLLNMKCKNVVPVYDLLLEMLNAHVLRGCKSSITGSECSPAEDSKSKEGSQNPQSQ
Chain of Cytochrome P450 3A4 (P08684 whole entry): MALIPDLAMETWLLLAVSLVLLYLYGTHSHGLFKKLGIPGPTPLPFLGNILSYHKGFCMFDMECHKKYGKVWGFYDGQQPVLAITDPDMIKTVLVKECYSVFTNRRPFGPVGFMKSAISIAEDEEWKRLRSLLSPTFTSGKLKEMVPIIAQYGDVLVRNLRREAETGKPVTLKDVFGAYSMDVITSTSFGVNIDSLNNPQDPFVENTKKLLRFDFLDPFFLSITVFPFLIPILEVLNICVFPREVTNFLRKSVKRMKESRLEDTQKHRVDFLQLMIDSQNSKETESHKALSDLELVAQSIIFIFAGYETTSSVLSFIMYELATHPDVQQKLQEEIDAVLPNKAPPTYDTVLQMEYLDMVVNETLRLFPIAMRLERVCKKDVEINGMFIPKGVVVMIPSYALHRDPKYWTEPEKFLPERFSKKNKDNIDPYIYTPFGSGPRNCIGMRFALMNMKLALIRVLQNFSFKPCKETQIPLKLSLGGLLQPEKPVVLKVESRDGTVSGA
Chain of Cytochrome P450 2D6 (P10635 whole entry): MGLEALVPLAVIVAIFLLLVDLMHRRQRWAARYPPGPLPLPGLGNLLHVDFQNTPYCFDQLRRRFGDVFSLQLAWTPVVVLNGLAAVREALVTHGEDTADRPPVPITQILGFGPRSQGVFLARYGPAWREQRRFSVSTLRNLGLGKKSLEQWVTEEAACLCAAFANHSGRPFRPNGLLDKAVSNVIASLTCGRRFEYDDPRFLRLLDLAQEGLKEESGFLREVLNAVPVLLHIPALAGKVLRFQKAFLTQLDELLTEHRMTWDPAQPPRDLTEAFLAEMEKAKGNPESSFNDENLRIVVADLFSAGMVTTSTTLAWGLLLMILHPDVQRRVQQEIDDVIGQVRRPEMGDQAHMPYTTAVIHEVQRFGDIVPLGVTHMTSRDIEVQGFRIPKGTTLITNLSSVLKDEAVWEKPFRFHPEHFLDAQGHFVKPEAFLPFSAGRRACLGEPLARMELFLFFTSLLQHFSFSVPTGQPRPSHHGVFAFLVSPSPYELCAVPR
Chain of Cytochrome P450 2C9 (P11712 whole entry): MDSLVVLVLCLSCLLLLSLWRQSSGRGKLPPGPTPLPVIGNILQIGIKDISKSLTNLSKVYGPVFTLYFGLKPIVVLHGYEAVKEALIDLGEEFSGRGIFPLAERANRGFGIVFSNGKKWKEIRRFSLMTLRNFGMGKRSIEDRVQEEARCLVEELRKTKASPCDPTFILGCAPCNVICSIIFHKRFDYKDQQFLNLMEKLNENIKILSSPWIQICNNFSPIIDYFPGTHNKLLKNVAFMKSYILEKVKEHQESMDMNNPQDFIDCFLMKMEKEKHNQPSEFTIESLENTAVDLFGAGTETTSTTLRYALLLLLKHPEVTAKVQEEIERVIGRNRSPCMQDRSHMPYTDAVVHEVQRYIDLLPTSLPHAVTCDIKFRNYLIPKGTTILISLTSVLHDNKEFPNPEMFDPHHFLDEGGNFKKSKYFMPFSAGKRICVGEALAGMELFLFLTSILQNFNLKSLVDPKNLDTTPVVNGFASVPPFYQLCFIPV

With `Oc1cccc(-c2ccc(-c3cccc(O)c3)cc2)c1`, the concentration for half-maximal inhibition (IC50) in data set [1] was 173 nM; in data set [2], 2260 nM; against Cytochrome P450 1A2 it was greater than 4000 nM; against Cytochrome P450 2B6, greater than 4000 nM; against Cytochrome P450 2C19 it was greater than 4000 nM; at Cytochrome P450 2D6, greater than 4000 nM. In addition, the IC50 against Cytochrome P450 2C9 worked out at 1900 nM; against Cytochrome P450 3A4 it was 2100 nM. Besides, the RBA in data set [3] is less than 0.001%; in data set [4], 0.01%. In addition, the outcome in the data set on T47D was inactive. In the data set “in vitro [5]”, this compound had an apparent permeability coefficient (Papp) at 50 µM of 12.5 ×10⁻⁶ cm/s. In “in vitro [6]”, this compound displayed a half-life at 1 µM of 22.7 min. The compound also registered a microsomal CLint at 1 µM in the data set “in vitro [7]” of 203 µL/min/mg.

The values above are taken from ChEMBL document CHEMBL1142534, “Design, synthesis, biological evaluation and pharmacokinetics of bis(hydroxyphenyl) substituted azoles, thiophenes, benzenes, and aza-benzenes as potent and selective nonsteroidal inhibitors of 17beta-hydroxysteroid dehydrogenase type 1 (17beta-HSD1)” (J Med Chem, 2008).
